For four compounds, mutagenic call results are on record in PubChem BioAssay AID1259407 (Chemical Carcinogenesis Research Information System (CCRIS), 2018).

For this series, the system named is CCRIS mutagenicity, Ames/micronucleus/aberration tests. Briefly: CCRIS mutagenicity studies.
The mark [1] stands for this setting: Test System: AMES SALMONELLA TYPHIMURIUM, Strain/Indicator: TA98, Metabolic Activation: NONE, Method: PREINCUBATION
Setting [2] is: Test System: AMES SALMONELLA TYPHIMURIUM, Strain/Indicator: TA100, Metabolic Activation: NONE, Method: PREINCUBATION
Where [3] appears, read: Test System: AMES SALMONELLA TYPHIMURIUM, Strain/Indicator: TA1535, Metabolic Activation: NONE, Method: PREINCUBATION
Setting [4] is: Test System: AMES SALMONELLA TYPHIMURIUM, Strain/Indicator: TA1537, Metabolic Activation: NONE, Method: PREINCUBATION

The source made the active and inactive calls. How the calls were made is not given here.

Take `CC(=O)N[C@@H]1[C@@H](O[C@@H]2O[C@H](C(=O)O)[C@@H](O[C@@H]3O[C@H](CO)[C@@H](O)[C@H](O[C@@H]4O[C@H](C(=O)O)[C@@H](O)[C@H](O)[C@H]4O)[C@H]3NC(C)=O)[C@H](O)[C@H]2O)[C@H](O)[C@@H](CO)O[C@H]1O`: the mutagenic call is “inactive; negative” (Test System: AMES SALMONELLA TYPHIMURIUM, Strain/Indicator: TA98, Metabolic Activation: NONE); “inactive; negative” under setting [1]; “inactive; negative” (Test System: AMES SALMONELLA TYPHIMURIUM, Strain/Indicator: TA98, Metabolic Activation: RAT, LIVER, S-9, PHENOBARBITAL AND 5,6-BENZOFLAVONE, Method: PREINCUBATION); “inactive; negative” (Test System: AMES SALMONELLA TYPHIMURIUM, Strain/Indicator: TA98, Metabolic Activation: RAT, LIVER, S-9, Method: PREINCUBATION); “inactive; negative” (Test System: AMES SALMONELLA TYPHIMURIUM, Strain/Indicator: TA98, Metabolic Activation: S-9); “inactive; negative” (Test System: AMES SALMONELLA TYPHIMURIUM, Strain/Indicator: TA100, Metabolic Activation: NONE). The mutagenic call is, setting by setting: under setting [2], “inactive; negative”; (Test System: AMES SALMONELLA TYPHIMURIUM, Strain/Indicator: TA100, Metabolic Activation: RAT, LIVER, S-9, PHENOBARBITAL AND 5,6-BENZOFLAVONE, Method: PREINCUBATION) “inactive; negative”; (Test System: AMES SALMONELLA TYPHIMURIUM, Strain/Indicator: TA100, Metabolic Activation: RAT, LIVER, S-9, Method: PREINCUBATION) “inactive; negative”; (Test System: AMES SALMONELLA TYPHIMURIUM, Strain/Indicator: TA100, Metabolic Activation: S-9) “inactive; negative”; (Test System: AMES SALMONELLA TYPHIMURIUM, Strain/Indicator: TA1535, Metabolic Activation: NONE) “inactive; negative”; under setting [3], “inactive; negative”. Further, the mutagenic call is “inactive; negative” (Test System: AMES SALMONELLA TYPHIMURIUM, Strain/Indicator: TA1535, Metabolic Activation: RAT, LIVER, S-9, PHENOBARBITAL AND 5,6-BENZOFLAVONE, Method: PREINCUBATION); “inactive; negative” (Test System: AMES SALMONELLA TYPHIMURIUM, Strain/Indicator: TA1535, Metabolic Activation: RAT, LIVER, S-9, Method: PREINCUBATION); “inactive; negative” (Test System: AMES SALMONELLA TYPHIMURIUM, Strain/Indicator: TA1535, Metabolic Activation: S-9); “inactive; negative” (Test System: AMES SALMONELLA TYPHIMURIUM, Strain/Indicator: TA1537, Metabolic Activation: NONE); “inactive; negative” under setting [4]; “inactive; negative” (Test System: AMES SALMONELLA TYPHIMURIUM, Strain/Indicator: TA1537, Metabolic Activation: RAT, LIVER, S-9, PHENOBARBITAL AND 5,6-BENZOFLAVONE, Method: PREINCUBATION). Also, the mutagenic call (Test System: AMES SALMONELLA TYPHIMURIUM, Strain/Indicator: TA1537, Metabolic Activation: RAT, LIVER, S-9, Method: PREINCUBATION) was “inactive; negative”; the mutagenic call (Test System: AMES SALMONELLA TYPHIMURIUM, Strain/Indicator: TA1537, Metabolic Activation: S-9) was “inactive; negative”; the mutagenic call (Test System: E. COLI, Strain/Indicator: WP2 UVRA, Metabolic Activation: NONE) was “inactive; negative”; the mutagenic call (Test System: E. COLI, Strain/Indicator: WP2 UVRA, Metabolic Activation: S-9) is “inactive; negative”; the mutagenic call (Test System: E.COLI, Strain/Indicator: WP2 UVRA, Metabolic Activation: NONE, Method: PREINCUBATION) was “inactive; negative”; the mutagenic call (Test System: E.COLI, Strain/Indicator: WP2 UVRA, Metabolic Activation: RAT, LIVER, S-9, PHENOBARBITAL AND 5,6-BENZOFLAVONE, Method: PREINCUBATION) was “inactive; negative”. In addition, under “Test System: E.COLI, Strain/Indicator: WP2 UVRA, Metabolic Activation: RAT, LIVER, S-9, Method: PREINCUBATION”, the mutagenic call is “inactive; negative”.

For the compound `CCOc1ccc2ccccc2c1`, the mutagenic call under setting [1] was “inactive; negative”; the mutagenic call (Test System: AMES SALMONELLA TYPHIMURIUM, Strain/Indicator: TA98, Metabolic Activation: RAT LIVER S-9, PHENOBARBITAL AND BETA-NAPHTHOFLAVONE, Method: PREINCUBATION) was “inactive; negative”; the mutagenic call under setting [2] was “inactive; negative”; the mutagenic call (Test System: AMES SALMONELLA TYPHIMURIUM, Strain/Indicator: TA100, Metabolic Activation: RAT LIVER S-9, PHENOBARBITAL AND BETA-NAPHTHOFLAVONE, Method: PREINCUBATION) is “inactive; negative”; the mutagenic call under setting [3] is “inactive; negative”; the mutagenic call (Test System: AMES SALMONELLA TYPHIMURIUM, Strain/Indicator: TA1535, Metabolic Activation: RAT LIVER S-9, PHENOBARBITAL AND BETA-NAPHTHOFLAVONE, Method: PREINCUBATION) was “inactive; negative”. The mutagenic call is, setting by setting: under setting [4], “inactive; negative”; (Test System: AMES SALMONELLA TYPHIMURIUM, Strain/Indicator: TA1537, Metabolic Activation: RAT LIVER S-9, PHENOBARBITAL AND BETA-NAPHTHOFLAVONE, Method: PREINCUBATION) “inactive; negative”; (Test System: E.COLI, Strain/Indicator: WP2UVRA/PKM101, Metabolic Activation: NONE, Method: PREINCUBATION) “inactive; negative”; (Test System: E.COLI, Strain/Indicator: WP2UVRA/PKM101, Metabolic Activation: RAT LIVER S-9, PHENOBARBITAL AND BETA-NAPHTHOFLAVONE, Method: PREINCUBATION) “inactive; negative”.

As for `COc1cc2c(c3oc(=O)c4c(c13)CCC4=O)[C@H]1[C@@H](O2)O[C@@H]2O[C@@H]21`, the mutagenic call was “active; positive” under setting [1]; “active; positive” (Test System: AMES SALMONELLA TYPHIMURIUM, Strain/Indicator: TA98, Metabolic Activation: RAT, LIVER, S-9, AROCLOR 1254, Method: PREINCUBATION); “active; positive” (Test System: AMES SALMONELLA TYPHIMURIUM, Strain/Indicator: TA100, Metabolic Activation: NONE, Method: MICROSUSPENSION); “active; positive” under setting [2]; “active; positive” (Test System: AMES SALMONELLA TYPHIMURIUM, Strain/Indicator: TA100, Metabolic Activation: RAT, LIVER, S-9, AROCLOR 1254, Method: MICROSUSPENSION); “active; positive” (Test System: AMES SALMONELLA TYPHIMURIUM, Strain/Indicator: TA100, Metabolic Activation: RAT, LIVER, S-9, AROCLOR 1254, Method: PREINCUBATION).

As to `O=[N+]([O-])c1cccc2csnc12`, the mutagenic call runs as follows: (Test System: AMES SALMONELLA TYPHIMURIUM, Strain/Indicator: TA98, Metabolic Activation: NONE, Method: STANDARD PLATE) “active; positive”; (Test System: AMES SALMONELLA TYPHIMURIUM, Strain/Indicator: TA100, Metabolic Activation: NONE, Method: STANDARD PLATE) “active; positive”; (Test System: AMES SALMONELLA TYPHIMURIUM, Strain/Indicator: TA100, Metabolic Activation: S-9, Method: STANDARD PLATE) “active; positive”; (Test System: AMES SALMONELLA TYPHIMURIUM, Strain/Indicator: TA1535, Metabolic Activation: NONE, Method: STANDARD PLATE) “active; positive”; (Test System: AMES SALMONELLA TYPHIMURIUM, Strain/Indicator: TA1535, Metabolic Activation: S-9, Method: STANDARD PLATE) “inactive; negative”; (Test System: AMES SALMONELLA TYPHIMURIUM, Strain/Indicator: TA1537, Metabolic Activation: NONE, Method: STANDARD PLATE) “active; positive”. Besides, the mutagenic call (Test System: AMES SALMONELLA TYPHIMURIUM, Strain/Indicator: TA1537, Metabolic Activation: S-9, Method: STANDARD PLATE) is “inactive; negative”.
